Columns and labels:
Carboplatin = compound: C1CC(C1)(C(=O)[O-])C(=O)[O-].N.N.[Pt+2] [Carboplatin]; settings: max 10 µM
Summary of the method: (§1)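 Cancer cell lines were plated in 1536-well plates in 7.5 μl of DMEM/F12 or RPMI with 10% FBS and kept 24 hours at 37°C and 5% CO2 before 72 hours of dosing, with final DMSO typically 0.2%. CellTiter-Glo 2.0 luminescence measured viability, scaled between blank-well and DMSO-well means. Dose responses were fitted to a two-parameter logistic curve with a non-linear mixed effects model. This fit gives the single-agent IC50.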

AZD5363 = compound: C1CN(CCC1(C(=O)N[C@@H](CCO)C2=CC=C(C=C2)Cl)N)C3=NC=NC4=C3C=CN4 [AZD5363]; settings: max 10 µM
Summary of the method: as §1

AZD1775 = compound: C=CCn1c(=O)c2cnc(Nc3ccc(N4CCN(C)CC4)cc3)nc2n1-c1cccc(C(C)(C)O)n1 [AZD1775]; settings: max 3 µM
Summary of the method: as §1

Trametinib = compound: CC(=O)Nc1cccc(-n2c(=O)n(C3CC3)c(=O)c3c(Nc4ccc(I)cc4F)n(C)c(=O)c(C)c32)c1 [Trametinib]; settings: max 1 µM
Summary of the method: as §1

Paclitaxel = compound: CC(=O)O[C@H]1C(=O)[C@@]2(C)[C@H]([C@H](OC(=O)c3ccccc3)[C@]3(O)C[C@H](OC(=O)[C@H](O)[C@@H](NC(=O)c4ccccc4)c4ccccc4)C(C)=C1C3(C)C)[C@]1(OC(C)=O)CO[C@@H]1C[C@@H]2O [Paclitaxel]; settings: max 3 µM
Summary of the method: as §1

Palbociclib = compound: CC(=O)c1c(C)c2cnc(Nc3ccc(N4CCNCC4)cn3)nc2n(C2CCCC2)c1=O [Palbociclib]; settings: max 10 µM
Summary of the method: as §1

AZD1390 = compound: CC(C)n1c(=O)n(C)c2cnc3cc(F)c(-c4ccc(OCCCN5CCCCC5)nc4)cc3c21 [AZD1390]; settings: max 0.3 µM
Summary of the method: as §1

Venetoclax = compound: CC1(C)CCC(CN2CCN(c3ccc(C(=O)NS(=O)(=O)c4ccc(NCC5CCOCC5)c([N+](=O)[O-])c4)c(Oc4cnc5[nH]ccc5c4)c3)CC2)=C(c2ccc(Cl)cc2)C1 [Venetoclax]; settings: max 1 µM
Summary of the method: as §1

Dasatinib = compound: CC1=C(C(=CC=C1)Cl)NC(=O)C2=CN=C(S2)NC3=CC(=NC(=N3)C)N4CCN(CC4)CCO [Dasatinib]; settings: max 2 µM
Summary of the method: as §1

SG3199 = compound: CC1=CN2[C@@H](C1)C=NC3=CC(=C(C=C3C2=O)OC)OCCCCCOC4=C(C=C5C(=C4)N=C[C@@H]6CC(=CN6C5=O)C)OC [SG3199]; settings: max 0.001 µM
Summary of the method: as §1

AZD2811 = compound: CCN(CCO)CCCOc1ccc2c(Nc3cc(CC(=O)Nc4cccc(F)c4)[nH]n3)ncnc2c1 [AZD2811]; settings: max 1 µM
Summary of the method: as §1

SN-38 = compound: CCc1c2c(nc3ccc(O)cc13)-c1cc3c(c(=O)n1C2)COC(=O)[C@]3(O)CC [SN-38]; settings: max 0.3 µM
Summary of the method: as §1

AZD0156 = compound: CN(C)CCCOc1ccc(-c2ccc3ncc4c(c3c2)n(C2CCOCC2)c(=O)n4C)cn1 [AZD0156]; settings: max 3 µM
Summary of the method: as §1

AZD4320 = compound: CN(CC[C@H](CSC1=CC=CC=C1)NC2=C(C=C(C=C2)S(=O)(=O)NC(=O)C3=CC=C(C=C3)N4CCC(CC4)[C@H](C5=CC=CC=C5C6=CC=C(C=C6)Cl)O)S(=O)(=O)C(F)(F)F)CCO [AZD4320]; settings: max 1 µM
Summary of the method: as §1

Alisertib = compound: COc1cc(Nc2ncc3c(n2)-c2ccc(Cl)cc2C(c2c(F)cccc2OC)=NC3)ccc1C(=O)O [Alisertib]; settings: max 10 µM
Summary of the method: as §1

Etoposide = compound: COc1cc([C@@H]2c3cc4c(cc3[C@@H](O[C@@H]3O[C@@H]5CO[C@@H](C)O[C@H]5[C@H](O)[C@H]3O)[C@H]3COC(=O)[C@H]23)OCO4)cc(OC)c1O [Etoposide]; settings: max 10 µM
Summary of the method: as §1

Gefitinib = compound: COc1cc2ncnc(Nc3ccc(F)c(Cl)c3)c2cc1OCCCN1CCOCC1 [Gefitinib]; settings: max 10 µM
Summary of the method: as §1

Prexasertib = compound: COc1cccc(OCCCN)c1-c1cc(Nc2cnc(C#N)cn2)n[nH]1 [Prexasertib]; settings: max 1 µM
Summary of the method: as §1

Doxorubicin = compound: COc1cccc2c1C(=O)c1c(O)c3c(c(O)c1C2=O)C[C@@](O)(C(=O)CO)C[C@@H]3O[C@H]1C[C@H](N)[C@H](O)[C@H](C)O1 [Doxorubicin]; settings: max 1 µM
Summary of the method: as §1

AZD5153 = compound: COc1nnc2ccc(N3CCC(c4ccc(OCCN5CCN(C)C(=O)[C@H]5C)cc4)CC3)nn12 [AZD5153]; settings: max 1 µM
Summary of the method: as §1

Lapatinib = compound: CS(=O)(=O)CCNCc1ccc(-c2ccc3ncnc(Nc4ccc(OCc5cccc(F)c5)c(Cl)c4)c3c2)o1 [Lapatinib]; settings: max 10 µM
Summary of the method: as §1

AZD8186 = compound: C[C@@H](Nc1cc(F)cc(F)c1)c1cc(C(=O)N(C)C)cc2c(=O)cc(N3CCOCC3)oc12 [AZD8186]; settings: max 10 µM
Summary of the method: as §1

Crizotinib = compound: C[C@@H](Oc1cc(-c2cnn(C3CCNCC3)c2)cnc1N)c1c(Cl)ccc(F)c1Cl [Crizotinib]; settings: max 10 µM
Summary of the method: as §1

Savolitinib = compound: C[C@@H](c1ccc2nccn2c1)n1nnc2ncc(-c3cnn(C)c3)nc21 [Savolitinib]; settings: max 1 µM
Summary of the method: as §1

AZD6738 = compound: C[C@@H]1COCCN1C2=NC(=NC(=C2)C3(CC3)[S@](=N)(=O)C)C4=C5C=CNC5=NC=C4 [AZD6738]; settings: max 10 µM
Summary of the method: as §1

AZD5991 = compound: Cc1c2c(nn1C)CSCc1cc(n(C)n1)CSc1cc(c3ccccc3c1)OCCCc1c(C(=O)O)n(C)c3c-2c(Cl)ccc13 [AZD5991]; settings: max 1 µM
Summary of the method: as §1

AZD7648 = compound: Cc1cc2ncnn2cc1Nc1ncc2c(n1)n(C1CCOCC1)c(=O)n2C [AZD7648]; settings: max 10 µM
Summary of the method: as §1

Taselisib = compound: Cc1nc(-c2cn3c(n2)-c2ccc(-c4cnn(C(C)(C)C(N)=O)c4)cc2OCC3)n(C(C)C)n1 [Taselisib]; settings: max 10 µM
Summary of the method: as §1

Selumetinib = compound: Cn1cnc2c(F)c(Nc3ccc(Br)cc3Cl)c(C(=O)NOCCO)cc21 [Selumetinib]; settings: max 10 µM
Summary of the method: as §1

SRA737 = compound: N#Cc1cnc(Nc2cc(NC[C@H]3CNCCO3)c(C(F)(F)F)cn2)cn1 [SRA737]; settings: max 10 µM
Summary of the method: as §1

MK-2206 = compound: NC1(c2ccc(-c3nc4ccn5c(=O)[nH]nc5c4cc3-c3ccccc3)cc2)CCC1 [MK-2206]; settings: max 10 µM
Summary of the method: as §1

Gemcitabine = compound: Nc1ccn([C@@H]2O[C@H](CO)[C@@H](O)C2(F)F)c(=O)n1 [Gemcitabine]; settings: max 0.3 µM
Summary of the method: as §1

[1] = compound: O=C(Nc1ccc2[nH]nc(-c3ccncc3)c2c1)[C@@H]1CCN(CC(=O)N2CCN(c3ccc(-c4ncccn4)cc3)CC2)C1; settings: max 5 µM
Summary of the method: as §1

Olaparib = compound: O=C(c1cc(Cc2n[nH]c(=O)c3ccccc23)ccc1F)N1CCN(C(=O)C2CC2)CC1 [Olaparib]; settings: max 10 µM
Summary of the method: as §1

5-Fluorouracil = compound: O=c1[nH]cc(F)c(=O)[nH]1 [5-Fluorouracil]; settings: max 20 µM
Summary of the method: as §1

## NCI-H727 (Other Solid Carcinomas)
Carboplatin
  IC50, cell viability 72 h: > 10 µM
AZD5363
  IC50, cell viability 72 h: > 10 µM
AZD1775
  IC50, cell viability 72 h: 2.6 µM
Trametinib
  IC50, cell viability 72 h: 0.0392 µM
Paclitaxel
  IC50, cell viability 72 h: > 3 µM
Palbociclib
  IC50, cell viability 72 h: > 10 µM
AZD1390
  IC50, cell viability 72 h: > 0.3 µM
Venetoclax
  IC50, cell viability 72 h: > 1 µM
Dasatinib
  IC50, cell viability 72 h: > 2 µM
SG3199
  IC50, cell viability 72 h: > 0.001 µM
AZD2811
  IC50, cell viability 72 h: > 1 µM
SN-38
  IC50, cell viability 72 h: > 0.3 µM
AZD0156
  IC50, cell viability 72 h: > 3 µM
AZD4320
  IC50, cell viability 72 h: > 1 µM
Alisertib
  IC50, cell viability 72 h: > 10 µM
Etoposide
  IC50, cell viability 72 h: > 10 µM
Gefitinib
  IC50, cell viability 72 h: > 10 µM
Prexasertib
  IC50, cell viability 72 h: 0.0759 µM
Doxorubicin
  IC50, cell viability 72 h: > 1 µM
AZD5153
  IC50, cell viability 72 h: > 1 µM
Lapatinib
  IC50, cell viability 72 h: > 10 µM
AZD8186
  IC50, cell viability 72 h: > 10 µM
Crizotinib
  IC50, cell viability 72 h: > 10 µM
Savolitinib
  IC50, cell viability 72 h: > 1 µM
AZD6738
  IC50, cell viability 72 h: > 10 µM
AZD5991
  IC50, cell viability 72 h: > 1 µM
AZD7648
  IC50, cell viability 72 h: > 10 µM
Taselisib
  IC50, cell viability 72 h: 2.5 µM
Selumetinib
  IC50, cell viability 72 h: 1.12 µM
SRA737
  IC50, cell viability 72 h: > 10 µM
MK-2206
  IC50, cell viability 72 h: > 10 µM
Gemcitabine
  IC50, cell viability 72 h: > 0.3 µM
[1]
  IC50, cell viability 72 h: 0.833 µM
Olaparib
  IC50, cell viability 72 h: > 10 µM
5-Fluorouracil
  IC50, cell viability 72 h: > 20 µM

## RF-48 (B-Cell Non-Hodgkin's Lymphoma)
Carboplatin
  IC50, cell viability 72 h: > 10 µM
AZD5363
  IC50, cell viability 72 h: > 10 µM
AZD1775
  IC50, cell viability 72 h: 1.45 µM
Trametinib
  IC50, cell viability 72 h: > 1 µM
Paclitaxel
  IC50, cell viability 72 h: 0.0199 µM
Palbociclib
  IC50, cell viability 72 h: > 10 µM
AZD1390
  IC50, cell viability 72 h: > 0.3 µM
Venetoclax
  IC50, cell viability 72 h: > 1 µM
Dasatinib
  IC50, cell viability 72 h: > 2 µM
SG3199
  IC50, cell viability 72 h: > 0.001 µM
AZD2811
  IC50, cell viability 72 h: > 1 µM
SN-38
  IC50, cell viability 72 h: 0.0212 µM
AZD0156
  IC50, cell viability 72 h: > 3 µM
AZD4320
  IC50, cell viability 72 h: 0.0247 µM
Alisertib
  IC50, cell viability 72 h: > 10 µM
Etoposide
  IC50, cell viability 72 h: > 10 µM
Gefitinib
  IC50, cell viability 72 h: > 10 µM
Prexasertib
  IC50, cell viability 72 h: 0.132 µM
Doxorubicin
  IC50, cell viability 72 h: 0.424 µM
AZD5153
  IC50, cell viability 72 h: > 1 µM
Lapatinib
  IC50, cell viability 72 h: > 10 µM
AZD8186
  IC50, cell viability 72 h: > 10 µM
Crizotinib
  IC50, cell viability 72 h: > 10 µM
Savolitinib
  IC50, cell viability 72 h: > 1 µM
AZD6738
  IC50, cell viability 72 h: > 10 µM
AZD5991
  IC50, cell viability 72 h: > 1 µM
AZD7648
  IC50, cell viability 72 h: > 10 µM
Taselisib
  IC50, cell viability 72 h: > 10 µM
Selumetinib
  IC50, cell viability 72 h: > 10 µM
SRA737
  IC50, cell viability 72 h: > 10 µM
MK-2206
  IC50, cell viability 72 h: > 10 µM
Gemcitabine
  IC50, cell viability 72 h: 0.0827 µM
[1]
  IC50, cell viability 72 h: > 5 µM
Olaparib
  IC50, cell viability 72 h: > 10 µM
5-Fluorouracil
  IC50, cell viability 72 h: > 20 µM
